The values that follow come from patent publication US20120148547A1, “COMBINATION OF VITAMIN E AND BETA-GLYCOSPHINGOLIPIDS IN COMPOSITIONS AND METHODS FOR PREVENTING AND TREATING HEPATIC DISORDERS” (Hadasit Medical Reasearch Services & Development Ltd., priority 2009, published 2012).

The test system of experiment [1] is acetaminophen-induced liver injury. In words: Acetaminophen-induced liver injury in mice treated with GC and vitamins, serum ALT and AST (Example 2). In kind it is in vivo, Male C57B1/6 mice. As to conditions: 24 hr after acetaminophen; vitamins by gavage, with or without 100 μg GC two hours before acetaminophen. The procedure:
Male C57B1/6 mice (11-12 weeks old) were obtained from Harlan Laboratories (Jerusalem, Israel) and maintained in the Animal Core of the Hadassah-Hebrew University Medical School. β-glucosylceramide (GC) was purchased from Avanti Polar Lipids (Alabaster, Ala., USA). […] Acetaminophen Sigma (cat. # A7085), was dissolved in a mixture of 30% Cremophor EL (Sigma, Rehovot, Israel) and ethanol (1:1) in DDW (Di distilled water). Mice were tested for serum Alanine transaminase (ALT) and Aspartate aminotransferase (AST) at 24 hours after acetaminophen administration. Serum AST and ALT levels were measured by an automatic analyzer. Mice of all groups (eight per group) were fasted for eight hours before oral administration of acetaminophen and for additional four hours after administration. […] Animals were sacrificed after 24 hours, and liver damage was assessed in all groups by examining serum levels of ALT, AST, GSH and TNF-α.

Another experiment relates to hepatic NKT cells. The experiment in a line: Flow cytometry of hepatic NKT lymphocytes (CD3+NK1.1+) after acetaminophen. In kind it is in vivo, mice. The settings on record: pretreatment before acetaminophen. The procedure:
For intrahepatic lymphocytes, livers were first crushed through a stainless mesh (size 60, Sigma) and cell suspension was placed in a 50-mL tube for 5 min to pellet the cell debris. Ten milliliters of Lymphoprep (Ficoll, Axis-Shield PoC AS, Oslo, Norway) was slowly placed under the same volume of cell suspension in 50-mL tubes. The tubes were then centrifuged at 1800 rpm for 18 min. Cells at the interface were collected and transferred to new tubes, which were then centrifuged at 1800 rpm for 10 min, to obtain a cell pellet depleted of hepatocytes in a final volume of 250 μl. Approximately 1×10^6 cells/mouse liver were recovered.
Flow cytometry was performed following lymphocyte isolation using 1×10^6 lymphocytes in 100 μl PBS. […] Pacigic Blue anti mouse CD4, FITC-anti mouse CD8 subsets were also used ((eBioscience, USA). For intracellular staining we used PE-anti mouse CD25 and PE-Cy7 anti mouse FOXp3 (eBioscience, USA). Cells were incubated for 30 min at 4° C. in the dark, and washed and resuspended in 200 μl PBS. Analytical cell sorting was performed on 1×10^4 cells from each group using a fluorescence-activated cell sorter (FACSTAR plus, Becton Dickinson). Only live cells were counted and unstained cells served as controls for background fluorescence. Gates were set on forward- and side-scatters to exclude dead cells and red blood cells. […]

For experiment [2], the system named is acetaminophen-induced liver injury. The experiment in a line: Acetaminophen-induced liver injury in mice treated with GC, serum ALT and AST (Example 1). In kind it is in vivo, Male C57B1/6 mice. More on the design: ALT levels: unit not given here. The settings on record: for ALT levels: p<0.001; for AST levels: control group A 6634, p<0.04. The procedure: Male C57B1/6 mice (11-12 weeks old) were obtained from Harlan Laboratories (Jerusalem, Israel) and maintained in the Animal Core of the Hadassah-Hebrew University Medical School. β-glucosylceramide (GC) was purchased from Avanti Polar Lipids (Alabaster, Ala., USA). Glycolipids (3.3 mg/ml) were dissolved in a mixture of 30% Cremophor EL (Sigma, Rehovot, Israel) and ethanol (1:1, C:E) in PBS. Acetaminophen Sigma (cat. # A7085), was dissolved in a mixture of 30% Cremophor EL (Sigma, Rehovot, Israel) and ethanol (1:1) in DDW (Di distilled water). […] Serum AST and ALT levels were measured by an automatic analyzer. Beta glycolipides were previously shown by the present inventors as having immunomodulatory effects. […] The inventors therefore next examined whether such effect may also enhance the glutathione system and thereby ameliorate hepatic injury induced by drugs such as acetaminophen. The effect of GC on acetaminophen-induced liver injury was evaluated by examination of liver enzyme (ALT and AST). Three groups of mice, 15 animals per group, were studied. Mice of all groups were fasted for eight hours before oral administration of acetaminophen and for additional four hours after administration. Mice in all groups were administered orally (PO) with 10 mg/330 μl acetaminophen (in C:E gavage administration). In addition, mice were administered with 100 μg β-glucosylceramide (β-GC, in 30 μl of C:E) two hours before administration of acetaminophen (Group B) and every two hours after acetaminophen administration (Group C), Mice in control group A were treated only with oral PBS.

For the molecule `O=C1O[C@H]([C@@H](O)CO)C(O)=C1O` [vitamin C, L-Ascorbic acid], the “effect on ALT levels (FIG. 4)” value in experiment [1] is “negligible effect”.
`Cc1c(C)c2c(c(C)c1O)CC[C@@](C)(CCC[C@H](C)CCC[C@H](C)CCCC(C)C)O2` [vitamin E, α-Tocopherol]: in experiment [1], the “effect on ALT levels (FIG. 4)” value was “negligible effect”. Besides, the “change in hepatic NKT cells” value in the experiment on hepatic NKT cells is “became significant”.
In the case of β-glucosylceramide [GC], the ALT levels was found to be 364 in experiment [2] (12 hr after acetaminophen 10 mg PO, 100 μg GC every two hours after acetaminophen (Group C), control group A 505); 332 in experiment [2] (12 hr after acetaminophen 10 mg PO, 100 μg GC two hours before acetaminophen (Group B), control group A 505); 5034 in experiment [2] (24 hr after acetaminophen, GC every two hours after acetaminophen (Group C), control group A 12150); 5222 in experiment [2] (24 hr after acetaminophen, GC two hours before acetaminophen (Group B), control group A 12150). The AST levels stood at 4029 in experiment [2] (24 hr after acetaminophen, GC every two hours after acetaminophen (Group C)) and 3650 in experiment [2] (24 hr after acetaminophen, GC two hours before acetaminophen (Group B)). In addition, the “change in hepatic NKT cells” value in the experiment with hepatic NKT cells is “small increase”.
